Series [1] in a line: Oral bioavailability in rat (dose 6 mg/kg). The format is ADME, organism-based. Conditions: in vivo.
Another series has as its target Prothrombin (Homo sapiens, UniProt P00734). As to the kind of experiment: Inhibitory activity against thrombin.
A short description of series [2]: Plasma clearance after intravenous administration of 0.4 mg/kg of dose in rats was determined. The arrangement: dose 0.4 mg/kg, route intravenous. Conditions: rat. The format is ADME, organism-based.
Series [3] is filed under the species Oryctolagus cuniculus. Briefly: Percent inhibition of thrombus formation in rabbit deep vein thrombosis at 0.83 uM. The class given is functional.
The next series has as its target Plasma kallikrein (Homo sapiens, UniProt P03952). Briefly: Inhibitory activity against kallikrein.
Series [4] can be described thus: Half life after intravenous administration was determined in rats at 0.4 mg/kg. Conditions: rat, in vivo.
The target in series [5] is Tissue-type plasminogen activator (Homo sapiens, UniProt P00750). Briefly: Inhibitory activity against tissue type plasminogen activator.
The test system of series [6] is Rattus norvegicus. As to the kind of experiment: Volume of distribution after intravenous administration of 0.4 mg/kg of dose in rats was determined. To be noted: in vivo.
The target in series [7] is Vitamin K-dependent protein C (Homo sapiens, UniProt P04070). Briefly: Inhibitory activity against activated protein C.
The species named for series [8] is Oryctolagus cuniculus. As to the kind of experiment: Percent inhibition of thrombus formation in rabbit deep vein thrombosis at 0.25 uM. The class given is functional.
Another series concerns the target Plasminogen (Homo sapiens, UniProt P00747). As to the kind of experiment: Inhibitory activity against plasmin.
The next series is filed under the species Homo sapiens. Briefly: Concentration required to double the lag time of maximum thrombin generation in human plasma-based thrombin generation assay. The format is functional.
Another series concerns the target Serine protease 1 (Homo sapiens, UniProt P07477). As to the kind of experiment: Inhibitory activity against trypsin.
Series [9] can be described thus: Oral bioavailability in dog. The format is ADME, organism-based, Canis lupus familiaris. Conditions: in vivo.
The species entered for series [10] is Rattus norvegicus. As to the kind of experiment: Effective dose required for antithrombotic activity in rat vena cava stasis model. The format is functional.

Bounds are passed on as bounds.

This note sets out measurements from ChEMBL document CHEMBL1147578, “Design, synthesis, and SAR of anthranilamide-based factor Xa inhibitors with improved functional activity” (Bioorg Med Chem Lett, 2004).

By bioavailability is commonly meant the share of a dose that reaches the circulation, judged against a reference dose that is usually intravenous. Lower therefore signals little systemic uptake. As a reminder, the IC50 is the concentration needed to halve the response being measured. A higher IC50 goes with lower potency. Broadly, the clearance is the volume of plasma or blood freed of the substance per unit of time. A low value points to inefficient removal. What is called Inhibition is the percentage by which the read-out fell short of the control. The half-life is the time needed for the level to fall by half in the phase considered. A low value points to rapid decline.

Serine protease 1, sequence (P07477 whole entry): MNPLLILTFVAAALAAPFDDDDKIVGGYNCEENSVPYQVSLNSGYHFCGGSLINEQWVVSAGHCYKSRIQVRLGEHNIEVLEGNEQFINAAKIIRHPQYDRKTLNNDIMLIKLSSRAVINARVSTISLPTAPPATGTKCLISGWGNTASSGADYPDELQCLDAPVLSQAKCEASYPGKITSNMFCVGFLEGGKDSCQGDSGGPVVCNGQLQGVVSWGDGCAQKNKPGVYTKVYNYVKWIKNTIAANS
Tissue-type plasminogen activator, sequence (P00750 whole entry): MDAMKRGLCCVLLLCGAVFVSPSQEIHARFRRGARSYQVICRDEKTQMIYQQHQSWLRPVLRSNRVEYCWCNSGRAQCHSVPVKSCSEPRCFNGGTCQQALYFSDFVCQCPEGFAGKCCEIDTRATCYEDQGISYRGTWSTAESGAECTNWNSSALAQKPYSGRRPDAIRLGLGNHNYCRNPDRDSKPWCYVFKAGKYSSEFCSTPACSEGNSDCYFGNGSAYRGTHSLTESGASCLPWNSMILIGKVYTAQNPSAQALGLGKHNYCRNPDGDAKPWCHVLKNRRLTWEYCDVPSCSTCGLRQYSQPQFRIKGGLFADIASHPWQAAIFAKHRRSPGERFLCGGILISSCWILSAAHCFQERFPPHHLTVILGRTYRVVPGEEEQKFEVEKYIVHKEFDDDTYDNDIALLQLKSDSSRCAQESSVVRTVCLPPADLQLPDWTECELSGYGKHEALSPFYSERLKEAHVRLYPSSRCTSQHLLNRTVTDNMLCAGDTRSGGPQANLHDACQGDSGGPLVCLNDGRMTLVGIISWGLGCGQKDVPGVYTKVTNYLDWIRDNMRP
Vitamin K-dependent protein C, sequence (P04070 43-197 limits assumed): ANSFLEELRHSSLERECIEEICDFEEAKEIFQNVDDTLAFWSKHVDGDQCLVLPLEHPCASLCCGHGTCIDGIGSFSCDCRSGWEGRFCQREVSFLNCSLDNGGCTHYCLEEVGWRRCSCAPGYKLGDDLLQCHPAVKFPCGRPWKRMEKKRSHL
Vitamin K-dependent protein C, sequence (P04070 212-461 limits assumed): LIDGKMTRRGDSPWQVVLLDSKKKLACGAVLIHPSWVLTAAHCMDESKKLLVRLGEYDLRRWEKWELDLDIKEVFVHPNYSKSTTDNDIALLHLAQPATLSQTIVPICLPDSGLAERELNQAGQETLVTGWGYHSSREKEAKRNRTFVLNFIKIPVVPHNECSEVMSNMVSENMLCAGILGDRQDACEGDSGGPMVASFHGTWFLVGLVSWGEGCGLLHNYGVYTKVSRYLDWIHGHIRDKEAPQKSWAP
Plasma kallikrein, sequence (P03952 20-390 limits assumed): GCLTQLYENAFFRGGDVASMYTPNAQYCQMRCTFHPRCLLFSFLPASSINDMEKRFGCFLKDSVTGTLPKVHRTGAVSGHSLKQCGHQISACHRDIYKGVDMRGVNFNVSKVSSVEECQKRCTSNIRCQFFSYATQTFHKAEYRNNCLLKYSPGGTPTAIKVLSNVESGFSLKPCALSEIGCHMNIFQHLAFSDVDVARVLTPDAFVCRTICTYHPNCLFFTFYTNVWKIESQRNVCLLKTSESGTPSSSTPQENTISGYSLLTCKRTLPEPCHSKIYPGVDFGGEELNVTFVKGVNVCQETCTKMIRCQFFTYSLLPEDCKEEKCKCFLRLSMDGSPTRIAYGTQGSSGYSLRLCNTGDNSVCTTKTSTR
Plasma kallikrein, sequence (P03952 391-638 limits assumed): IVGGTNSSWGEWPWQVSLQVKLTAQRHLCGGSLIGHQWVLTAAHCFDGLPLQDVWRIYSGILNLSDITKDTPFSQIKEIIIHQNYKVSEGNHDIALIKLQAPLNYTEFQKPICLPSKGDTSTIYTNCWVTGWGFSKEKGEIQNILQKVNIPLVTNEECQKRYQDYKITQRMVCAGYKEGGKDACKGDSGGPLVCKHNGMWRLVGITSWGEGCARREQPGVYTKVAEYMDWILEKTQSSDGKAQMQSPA
Plasminogen, sequence (P00747 97-580 limits assumed): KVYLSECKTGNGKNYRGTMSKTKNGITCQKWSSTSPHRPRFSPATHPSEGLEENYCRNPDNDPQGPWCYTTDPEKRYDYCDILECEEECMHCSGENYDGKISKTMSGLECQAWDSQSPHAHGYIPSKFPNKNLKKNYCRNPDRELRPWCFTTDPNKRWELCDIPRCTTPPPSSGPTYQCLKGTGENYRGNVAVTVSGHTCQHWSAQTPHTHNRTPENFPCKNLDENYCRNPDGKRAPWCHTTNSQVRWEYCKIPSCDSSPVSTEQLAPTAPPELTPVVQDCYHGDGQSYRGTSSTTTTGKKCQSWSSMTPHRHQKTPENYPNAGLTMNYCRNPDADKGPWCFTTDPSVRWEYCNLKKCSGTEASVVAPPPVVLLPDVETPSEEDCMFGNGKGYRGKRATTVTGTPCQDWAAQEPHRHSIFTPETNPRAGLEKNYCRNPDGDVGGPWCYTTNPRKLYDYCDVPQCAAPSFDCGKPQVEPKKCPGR
Plasminogen, sequence (P00747 581-810 limits assumed): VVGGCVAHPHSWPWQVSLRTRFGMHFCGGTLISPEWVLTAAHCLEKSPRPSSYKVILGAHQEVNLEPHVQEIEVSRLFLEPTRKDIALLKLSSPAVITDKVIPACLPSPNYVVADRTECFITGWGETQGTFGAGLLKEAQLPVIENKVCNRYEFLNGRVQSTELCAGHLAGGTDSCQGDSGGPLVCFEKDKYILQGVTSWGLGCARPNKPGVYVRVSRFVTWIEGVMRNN

The molecule `N=C1OCCN1Cc1ccc(C(=O)Nc2ccc(Cl)cc2C(=O)Nc2ccc(Cl)cn2)cc1` registered a bioavailability in [1] of 44%. The IC50 at Prothrombin is > 11 µM; on Plasma kallikrein, 0.56 µM; in [5] it was > 11 µM; in series [7] it was > 11 µM; against Plasminogen, > 11 µM; against Serine protease 1, > 11 µM. In addition, the clearance in series [2] was 18.3 mL/min/kg. Also, the results for the Inhibition in the series listed under Oryctolagus cuniculus [3] and in the series listed under Oryctolagus cuniculus [8] were 40% and 25%, respectively. Also, the half-life in series [4] is 8.5 h. Also, in the series on Rattus norvegicus [6], the Volume of distribution came out at 13.6 L/kg. The molecule further yielded an Activity in the series filed under Homo sapiens of 0.56 µM.
In turn, `COc1cc(Cl)cc(C(=O)Nc2ccc(Cl)cn2)c1NC(=O)c1scc(CN(C)C2=NCCO2)c1Cl` yielded a bioavailability in series [9] of 40%. In addition, the ED50 in the series listed under Rattus norvegicus [10] is 0.8 µM.
